Results from patent US11028077B2, “Crystalline pharmaceutical and methods of preparation and use thereof” (NOVARTIS PHARMACEUTICALS CORPORATION, priority 2008, dated 2021).

Key:
[1] = tested on: attachment of Jurkat cells to ICAM-1; assay: T-cell adhesion assay using Jurkat cells; format: cell-based, human
Description: A reported LFA-1 antagonist was used as the positive control.
Jurkat cells were labeled with an 8 μM solution of BCECF-AM (2′,7′-bis-(2-carboxyethyl)-5-(and-6)-carboxyfluorescein) in growth media at room temperature for 15 minutes. […] Non-adherent cells were removed by washing and centrifugation at 100 g for 1 minute. Adherent cells were determined as adherent fluorescent units on a fluorescent plate reader.

[2] = tested on: SEB stimulated IL-2 release in whole human blood; assay: cells; format: cell-based; conditions: read-out: IC50, inhibition of SEB stimulated IL-2 release
[3] = tested on: cell attachment and SEB IL-2 release; assay: cells; format: cell-based
dogs (beagles) = assay: Cardiovascular effects in conscious telemetry-instrumented dogs, IV bolus; format: in vivo, dog; conditions: IV bolus injection
rats [4] = assay: CNS effects in rats, single bolus IV injection; format: in vivo, rat; conditions: 10.0 mg/kg IV, 1 minute to 6 hours postdose, 2/6 animals at each time point
From the text: No effect on any other parameters was observed.

rats [5] = assay: Respiratory function in rats, single IV bolus, head-out plethysmograph; format: in vivo, rat; conditions: any dose
[6] = tested on: Chinese hamster ovary (CHO) cells; assay: In vitro chromosomal aberration assay in CHO cells; format: cell-based; conditions: with and without metabolic activation; except single toxic dose 3500 μg/mL without activation
From the text: The biological relevance of this response is equivocal due to cytotoxicity.

CD-1 (ICR) BR mice = assay: In vivo mouse bone marrow micronucleus assay; conditions: repeated IV administrations
dogs [7] = assay: Acute toxicity, escalating single dose IV and 7-day repeated dose with TK in dogs; format: in vivo, dog; conditions: escalating single dose IV and 7-day repeated dose
Description: 4. Acute Toxicity Studies: For single dose IV in rats, the no observable adverse effect level (NOAEL) was 10 mg/kg IV. For escalating single dose IV and 7-day repeated dose with TK (toxicokinetics) in dogs, the NOAEL was 10 mg/kg IV. For single dose ocular tolerance in rabbits, the NOAEL was 3.5 mg/eye/3× per day (10%).

rabbits = assay: Single dose ocular tolerance in rabbits; format: in vivo, rabbit; conditions: rabbits (10%)
rats [8] = assay: 13-week IV toxicity study in rats with 4-week recovery (toxicity and plasma exposure); format: in vivo, rat
[9] = Single dose ocular and IV ADME study with [14C]-compound in rats, quantitative whole body autoradiography; format: in vivo, rat; conditions: tissue distribution in pigmented vs albino rats
[10] = Rat ocular pharmacokinetics of [14C]-compound (ocular tissue levels); format: in vivo; conditions: rat, for 16 hrs
[11] = Single dose ADME study with [14C]-compound in dogs; format: in vivo; conditions: dog, for 16 hrs
From the text: No differences in results from male and female dogs were observed.

dogs [12] = assay: Pilot ocular tolerance / PK of topically administered compound in dogs; format: in vivo, dog; conditions: up to 10% strength at 3 doses/day
[13] = Skin transport studies on microtomed human skin; format: in vitro ADME; conditions: 1% (w/w) prototypes; [^14C]-compound
From the text: Prototypes have been developed and tested on microtomed human skin from elective surgery at 1% (w/w). The forms include gels, ointment, or lotion. […]

rats [14] = assay: Pilot rat dermal study; format: in vivo; conditions: 1% lotion, ointment, gel, DMSO; TID seven days, 10 mg/cm^2
Description: The safety and tolerability of prototypical dermal formulations (1% lotion, ointment, and gel) were assessed on rats given TID for seven consecutive days—approximately 6 cm^2 with 10 mg/cm^2.

[15] = rabbit, in vivo, topical or ocular, 0.35 mg
mini-pigs = assay: Pilot mini-pig dermal study
[16] = Plasma PK after single topical ocular instillation (dogs and rabbits); conditions: baseline levels by about 4 hours
dogs [17] = assay: 13-week ocular toxicity study in dogs with 4-week recovery (toxicity and TK); conditions: dogs (3%)
[18] = daily IV bolus 3 mg/kg, Week 13
[19] = daily IV bolus 10 mg/kg, Week 13
[20] = daily IV bolus 30 mg/kg, Week 13

CS(=O)(=O)c1cccc(C[C@H](NC(=O)c2c(Cl)cc3c(c2Cl)CCN(C(=O)c2ccc4ccoc4c2)C3)C(=O)O)c1 [compound of Formula I]
Jurkat cell attachment to ICAM-1 [1]: inhibition of Jurkat cell attachment with increasing dose | dose response curve and IC50 ([1]; compared with positive control, a reported LFA-1 antagonist): comparable to that of the known direct competitive LFA-1 antagonist | IC50 [2]: 69 nM | IC50 [3]: 2 nM | effects on electrocardiography or hemodynamic parameters (dogs (beagles)): No effects on electrocardiography or hemodynamic parameters | CNS observation (rats [4]): Transient miosis | respiratory function (tidal volume, respiration rate, minute volume) (rats [5]): No adverse changes in respiratory function or adverse effects | induction of structural chromosomal aberrations [6]: negative for inducing structural chromosomal aberrations | micronuclei in polychromatic erythrocytes (CD-1 (ICR) BR mice): negative | NOAEL (dogs [7]): 10 mg/kg | NOAEL (rabbits): 3.5 mg/eye/3× per day | AUC0-n (rats [8]; daily IV bolus 3 mg/kg, Day 1): 148.3 ng·h/mL | Cmax (rats [8]; daily IV bolus 3 mg/kg, Day 1): 305.2 ng/mL | AUC0-n (rats [8]; [18]): 241.4 ng·h/mL | Cmax (rats [8]; [18]): 377.5 ng/mL | AUC0-n (rats [8]; daily IV bolus 10 mg/kg, Day 1): 535.6 ng·h/mL | Cmax (rats [8]; daily IV bolus 10 mg/kg, Day 1): 1045.3 ng/mL | AUC0-n (rats [8]; [19]): 907.1 ng·h/mL | Cmax (rats [8]; [19]): 1691.5 ng/mL | AUC0-n (rats [8]; daily IV bolus 30 mg/kg, Day 1): 2345.5 ng·h/mL | Cmax (rats [8]; daily IV bolus 30 mg/kg, Day 1): 5117.3 ng/mL | AUC0-n (rats [8]; [20]): 7471.5 ng·h/mL | Cmax (rats [8]; [20]): 16932.8 ng/mL | binding to melanin [9]: did not preferentially bind to melanin | levels in conjunctiva/cornea [10]: > 100 nM | levels in conjunctiva/cornea [11]: greater than 1 micromolar | ocular safety and tolerability (dogs [12]): safe and well tolerated | concentration in dermis [13]: greater than 10 micromolar | dose penetration [13]: 2-4% | serum level (rats [14]): detectable in serum | Mean tear AUC [15]: 18931 ng·h/mL | toxicity (mini-pigs; DMSO, gel, ointment, lotion at 1%, dermal TID for 7 days, 10 mg/cm^2): No toxicity | plasma level (mini-pigs; all groups, below the LLOQ): < 0.5 ng/mL | time of maximum plasma concentration post-dose [16]: about 0.25 hrs | NOAEL (dogs [17]): 1.05 mg/eye/3× per day
